Source: the NIST ThermoML archive (doi:10.1021/je400055v)
± gives the expanded uncertainty stated by the source.

Experiment: xn = mol fraction of the nth substance listed
Conditions: Liquid, Vibrating tube method

CCCCCCCCCCC [undecane] + CCCCCCC
Conditions	mass density [kg/m3]
313.15 K, 23000 kPa, x2 = 0.05	740.6 ± 0.4
313.15 K, 23000 kPa, x2 = 0.7482	706.2 ± 0.4
313.15 K, 24000 kPa, x2 = 0.05	741.3 ± 0.4
313.15 K, 24000 kPa, x2 = 0.7482	707 ± 0.4
313.15 K, 25000 kPa, x2 = 0.05	741.9 ± 0.4
313.15 K, 25000 kPa, x2 = 0.7482	707.7 ± 0.4
313.16 K, 1000 kPa, x2 = 0.2346	716.5 ± 0.3
313.16 K, 2001 kPa, x2 = 0.2346	717.4 ± 0.3
313.16 K, 3000 kPa, x2 = 0.2346	718.3 ± 0.3
313.16 K, 4001 kPa, x2 = 0.2346	719.2 ± 0.3
313.16 K, 5000 kPa, x2 = 0.2346	720 ± 0.3
313.16 K, 6000 kPa, x2 = 0.2346	720.8 ± 0.3
313.16 K, 7000 kPa, x2 = 0.2346	721.7 ± 0.3
313.16 K, 8000 kPa, x2 = 0.2346	722.5 ± 0.3
313.16 K, 9000 kPa, x2 = 0.2346	723.3 ± 0.3
313.16 K, 10000 kPa, x2 = 0.2346	724.1 ± 0.3
313.16 K, 11001 kPa, x2 = 0.2346	724.8 ± 0.3
313.16 K, 12000 kPa, x2 = 0.2346	725.6 ± 0.3
313.16 K, 13000 kPa, x2 = 0.2346	726.4 ± 0.3
313.16 K, 14000 kPa, x2 = 0.2346	727.1 ± 0.3
313.16 K, 15000 kPa, x2 = 0.2346	727.8 ± 0.3
313.16 K, 16000 kPa, x2 = 0.2346	728.6 ± 0.4
313.16 K, 17000 kPa, x2 = 0.2346	729.3 ± 0.4
313.16 K, 18000 kPa, x2 = 0.2346	730 ± 0.4
313.16 K, 19000 kPa, x2 = 0.2346	730.7 ± 0.4
313.16 K, 20000 kPa, x2 = 0.2346	731.4 ± 0.4
313.16 K, 21000 kPa, x2 = 0.2346	732.1 ± 0.4
313.16 K, 22000 kPa, x2 = 0.2346	732.7 ± 0.4
313.16 K, 23000 kPa, x2 = 0.2346	733.4 ± 0.4
313.16 K, 24000 kPa, x2 = 0.2346	734 ± 0.4
313.16 K, 25000 kPa, x2 = 0.2346	734.7 ± 0.4
323.09 K, 1001 kPa, x2 = 0.9511	663.1 ± 0.3
323.09 K, 2000 kPa, x2 = 0.9511	664.3 ± 0.3
323.09 K, 3000 kPa, x2 = 0.9511	665.4 ± 0.3
323.09 K, 4000 kPa, x2 = 0.9511	666.6 ± 0.3
323.09 K, 5000 kPa, x2 = 0.9511	667.7 ± 0.3
323.09 K, 6000 kPa, x2 = 0.9511	668.8 ± 0.3
323.09 K, 7000 kPa, x2 = 0.9511	669.9 ± 0.3
323.09 K, 8000 kPa, x2 = 0.9511	670.9 ± 0.3
323.09 K, 9000 kPa, x2 = 0.9511	672 ± 0.3
323.09 K, 10000 kPa, x2 = 0.9511	673 ± 0.3
323.09 K, 11000 kPa, x2 = 0.9511	674 ± 0.4
323.09 K, 12000 kPa, x2 = 0.9511	675 ± 0.4
323.09 K, 13000 kPa, x2 = 0.9511	675.9 ± 0.4
323.09 K, 14001 kPa, x2 = 0.9511	676.9 ± 0.4
323.09 K, 15001 kPa, x2 = 0.9511	677.8 ± 0.4
